According to patent US12570695B2, “Bicyclic peptide ligands specific for EphA2” (priority 2019, dated 2026):
Starred links: 1 amine or outer side, 2 acyl side, 3 side chain; linkers in the order of their positions; H or OH if unused. Positions of bridges follow the written chain, without caps; N, C: chain ends. Non-standard residues stand in square brackets, D forms with d. Residues, ends and D or L forms follow the SMILES beside them. TATA = O=C(CC[*:1])N1CN(C(=O)CC[*:2])CN(C(=O)CC[*:3])C1; Ala(4-thiazolyl) = N[C@@H](Cc1cscn1)C(=O)O; Dip = N[C@H](C(=O)O)C(c1ccccc1)c1ccccc1; 1Nal = N[C@@H](Cc1cccc2ccccc12)C(=O)O; Hyp = O=C(O)[C@@H]1C[C@@H](O)CN1; hArg = N=C(N)NCCCC[C@H](N)C(=O)O; 2Thi = N[C@@H](Cc1cccs1)C(=O)O; NMeA = CN[C@@H](C)C(=O)O; Nle = CCCC[C@H](N)C(=O)O; Mpa = O=C(O)CCS

Each molecule was assayed against human EphA2 (Homo sapiens, UniProt P29317) (assay: biochemical).
human EphA2, sequence (P29317 24-976): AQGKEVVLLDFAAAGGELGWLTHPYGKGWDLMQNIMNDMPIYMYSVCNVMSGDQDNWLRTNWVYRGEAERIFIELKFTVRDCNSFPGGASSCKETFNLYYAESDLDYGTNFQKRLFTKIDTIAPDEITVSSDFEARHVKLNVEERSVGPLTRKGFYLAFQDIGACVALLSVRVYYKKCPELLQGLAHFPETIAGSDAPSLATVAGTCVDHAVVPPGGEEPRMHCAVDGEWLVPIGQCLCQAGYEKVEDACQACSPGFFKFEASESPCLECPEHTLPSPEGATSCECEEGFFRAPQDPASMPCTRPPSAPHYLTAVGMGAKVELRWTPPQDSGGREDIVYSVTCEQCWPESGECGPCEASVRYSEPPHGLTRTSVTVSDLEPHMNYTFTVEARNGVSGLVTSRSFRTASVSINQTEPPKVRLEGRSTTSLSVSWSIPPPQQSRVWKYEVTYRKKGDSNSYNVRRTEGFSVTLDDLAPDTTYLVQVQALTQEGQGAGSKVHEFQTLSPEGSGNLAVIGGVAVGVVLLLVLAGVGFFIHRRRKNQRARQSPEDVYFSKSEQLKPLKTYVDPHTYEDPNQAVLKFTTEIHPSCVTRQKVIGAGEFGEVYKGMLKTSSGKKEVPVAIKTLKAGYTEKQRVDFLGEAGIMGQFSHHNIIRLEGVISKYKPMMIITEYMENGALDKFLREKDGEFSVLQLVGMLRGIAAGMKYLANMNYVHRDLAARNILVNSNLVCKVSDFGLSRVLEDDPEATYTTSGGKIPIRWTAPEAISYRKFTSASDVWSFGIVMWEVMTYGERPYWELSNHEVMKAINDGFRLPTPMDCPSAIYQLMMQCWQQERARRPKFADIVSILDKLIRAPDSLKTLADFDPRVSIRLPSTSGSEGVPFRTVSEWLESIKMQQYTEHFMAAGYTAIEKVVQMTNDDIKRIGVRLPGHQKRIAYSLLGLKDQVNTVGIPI
Method: Peptides without a fluorescent tag were tested in competition with a peptide with a fluorescent tag and a known Kd.
Peptides were diluted to an appropriate concentration in assay buffer as described in the direct binding assay with a maximum of 5% DMSO, then serially diluted 1 in 2. […] Measurements were conducted, however the gain was determined prior to the first measurement. Data analysis was in Systat Sigmaplot version 12.0 where the mP values were fit to a user defined cubic equation to generate a Ki value:
“Lig”, “KLig” and “Prot” were all defined values relating to: fluorescent peptide concentration, the Kd of the fluorescent peptide and EphA2 concentration respectively.
Molecule `CC(C)C[C@@H]1NC(=O)[C@@H]2CSCCC(=O)N3CN(CN(C3)C(=O)CCSC[C@H](NC(=O)[C@H](CC(=O)O)NC(=O)[C@H](CCCCNC(=N)N)NC(=O)[C@H](C)N)C(=O)N3C[C@H](O)C[C@H]3C(=O)N[C@@H](CC(C)C)C(=O)N[C@@H](C(C)C)C(=O)N[C@@H](CC(N)=O)C(=O)N3CCC[C@H]3C(=O)N[C@@H](CC(C)C)C(=O)N2)C(=O)CCSC[C@@H](C(N)=O)NC(=O)[C@H](CCCCNC(=N)N)NC(=O)[C@H](Cc2c[nH]c3ccccc23)NC(=O)[C@@H](CC(=O)O)NC(=O)[C@@H]2CCCN2C(=O)[C@H](Cc2cscn2)NC1=O` [BCY13919, A[HArg]DCi[HyP]LVNPLCiiL[4ThiAz]P[dD]W[HArg]Ciii] (H-A[hArg]DC[Hyp]LVNPLCL[Ala(4-thiazolyl)]P[dD]W[hArg]C-NH2; linker 4-11-18 via TATA; N-terminus and C-terminus assumed) has a Ki of 2.1 nM.
With `CC(C)C[C@@H]1NC(=O)[C@@H]2CSCCC(=O)N3CN(CN(C3)C(=O)CCSC[C@H](NC(=O)[C@H](CC(=O)O)NC(=O)[C@H](CCCCNC(=N)N)NC(=O)[C@H](C)N)C(=O)N3C[C@H](O)C[C@H]3C(=O)N[C@@H](CC(C)C)C(=O)N[C@@H](C(C)C)C(=O)N[C@@H](CC(N)=O)C(=O)N3CCC[C@H]3C(=O)N[C@@H](CC(C)C)C(=O)N2)C(=O)CCSC[C@@H](C(N)=O)NC(=O)[C@H](CCCCNC(=N)N)NC(=O)[C@H](Cc2c[nH]c3ccccc23)NC(=O)[C@@H](CC(=O)O)NC(=O)[C@@H]2CCCN2C(=O)[C@H](Cc2ccccc2)NC1=O` [BCY13920, A[HArg]DCi[HyP]LVNPLCiiLFP[dD]W[HArg]Ciii] (H-A[hArg]DC[Hyp]LVNPLCLFP[dD]W[hArg]C-NH2; linker 4-11-18 via TATA; N-terminus and C-terminus assumed) the Ki was 0.641 nM.
Work on `CC(C)C[C@@H]1NC(=O)[C@@H]2CSCCC(=O)N3CN(CN(C3)C(=O)CCSC[C@H](N)C(=O)N3C[C@H](O)C[C@H]3C(=O)N[C@@H](CC(C)C)C(=O)N[C@@H](C(C)C)C(=O)N[C@@H](CC(N)=O)C(=O)N3CCC[C@H]3C(=O)N[C@@H](CC(C)C)C(=O)N2)C(=O)CCSC[C@@H](C(=O)N[C@H](C)C(N)=O)NC(=O)[C@H]([C@@H](C)O)NC(=O)[C@H](Cc2c[nH]c3ccccc23)NC(=O)[C@@H](CC(=O)O)NC(=O)[C@@H]2CCCN2C(=O)[C@H](CCC(=O)O)NC1=O` [BCY12861, Ci[HyP]LVNPLCiiLEP[dD]WTCiii[dA]] (H-C[Hyp]LVNPLCLEP[dD]WTC[dA]-NH2; linker 1-8-15 via TATA; N-terminus and C-terminus assumed) yielded a Ki of 21.7 nM.
`CC(=O)N[C@H]1CSCCC(=O)N2CN3CN(C2)C(=O)CCSC[C@@H](C(=O)N[C@H](CCCCN)C(N)=O)NC(=O)[C@H]([C@@H](C)O)NC(=O)[C@H](Cc2c[nH]c4ccccc24)NC(=O)[C@@H](CC(=O)O)NC(=O)[C@@H]2CCCN2C(=O)[C@H](C(c2ccccc2)c2ccccc2)NC(=O)[C@H](CC(C)C)NC(=O)[C@H](CSCCC3=O)NC(=O)[C@H](CC(C)C)NC(=O)[C@@H]2CCCN2C(=O)[C@H](CC(N)=O)NC(=O)[C@H](C(C)C)NC(=O)[C@H](CC(C)C)NC(=O)[C@@H]2C[C@@H](O)CN2C1=O` [BCY13120, Ac-Ci[HyP]LVNPLCiiL[3,3-DPA]P[dD]WTCiii-[dK]] (Ac-C[Hyp]LVNPLCL[Dip]P[dD]WTC[dK]-NH2; linker 1-8-15 via TATA; C-terminus assumed) showed a Ki of 0.916 nM.
`CC(C)C[C@@H]1NC(=O)[C@@H]2CSCCC(=O)N3CN(CN(C3)C(=O)CCSC[C@H](NC(=O)[C@H](CC(=O)O)NC(=O)[C@H](CCCCNC(=N)N)NC(=O)[C@H](C)N)C(=O)N3C[C@H](O)C[C@H]3C(=O)N[C@@H](CC(C)C)C(=O)N[C@@H](C(C)C)C(=O)N[C@@H](CC(N)=O)C(=O)N3CCC[C@H]3C(=O)N[C@@H](CC(C)C)C(=O)N2)C(=O)CCSC[C@@H](C(N)=O)NC(=O)[C@H]([C@@H](C)O)NC(=O)[C@H](Cc2c[nH]c3ccccc23)NC(=O)[C@@H](CC(=O)O)NC(=O)[C@@H]2CCCN2C(=O)[C@H](Cc2c[nH]cn2)NC1=O` [BCY12855, A-[HArg]-D-Ci[HyP]LVNPLCiiLHP[dD]WTCiii] (H-A[hArg]DC[Hyp]LVNPLCLHP[dD]WTC-NH2; linker 4-11-18 via TATA; N-terminus and C-terminus assumed) showed a Ki of 5.55 nM.
`CC(C)C[C@@H]1NC(=O)[C@@H]2CSCCC(=O)N3CN(CN(C3)C(=O)CCSC[C@@H](C(=O)N[C@H](CCCCN)C(N)=O)NC(=O)[C@H]([C@@H](C)O)NC(=O)[C@H](Cc3c[nH]c4ccccc34)NC(=O)[C@@H](CC(=O)O)NC(=O)[C@@H]3CCCN3C(=O)[C@H](C(c3ccccc3)c3ccccc3)NC1=O)C(=O)CCSCCC(=O)N1C[C@H](O)C[C@H]1C(=O)N[C@@H](CC(C)C)C(=O)N[C@@H](C(C)C)C(=O)N[C@@H](CC(N)=O)C(=O)N1CCC[C@H]1C(=O)N[C@@H](CC(C)C)C(=O)N2` [BCY13129, [MerPro]i[HyP]LVNPLCiiL[3,3-DPA]P[dD]WTCiii[dK]] ([Mpa][Hyp]LVNPLCL[Dip]P[dD]WTC[dK]-NH2; linker 1-8-15 via TATA; C-terminus assumed) showed a Ki of 1.88 nM.
In the case of `CN[C@@H](C)C(=O)N[C@@H](CCCCNC(=N)N)C(=O)N[C@@H](CC(=O)O)C(=O)N[C@H]1CSCCC(=O)N2CN3CN(C2)C(=O)CCSC[C@H](NC(=O)[C@H](CC(C)C)NC(=O)[C@@H]2CCCN2C(=O)[C@H](CC(N)=O)NC(=O)[C@H](C(C)C)NC(=O)[C@H](CC(C)C)NC(=O)[C@@H]2C[C@@H](O)CN2C1=O)C(=O)N[C@@H](CC(C)C)C(=O)N[C@@H](Cc1c[nH]cn1)C(=O)N1CCC[C@H]1C(=O)N[C@H](CC(=O)O)C(=O)N[C@@H](Cc1c[nH]c2ccccc12)C(=O)N[C@@H](CCCCNC(=N)N)C(=O)N[C@H](C(N)=O)CSCCC3=O` [BCY13121, [NMeAla]-[HArg]-D-Ci[HyP]LVNPLCiiLHP[dD]W[HArg]Ciii] (H-[NMeA][hArg]DC[Hyp]LVNPLCLHP[dD]W[hArg]C-NH2; linker 4-11-18 via TATA; N-terminus and C-terminus assumed), the Ki is reported as 1.49 nM.
`CCCC[C@@H]1NC(=O)[C@H](CC(C)C)NC(=O)[C@@H]2CSCCC(=O)N3CN(CN(C3)C(=O)CCSC[C@H](NC(=O)[C@H](CC(=O)O)NC(=O)[C@H](CCCCNC(=N)N)NC(=O)[C@H](C)N)C(=O)N3C[C@H](O)C[C@H]3C(=O)N[C@@H](CC(C)C)C(=O)N[C@@H](C(C)C)C(=O)N[C@@H](CC(N)=O)C(=O)N3CCC[C@H]3C(=O)N[C@@H](CC(C)C)C(=O)N2)C(=O)CCSC[C@@H](C(N)=O)NC(=O)[C@H](CCCCNC(=N)N)NC(=O)[C@H](Cc2c[nH]c3ccccc23)NC(=O)[C@@H](CC(=O)O)NC(=O)[C@@H]2CCCN2C1=O` [BCY13135, A-[HArg]-D-Ci[HyP]LVNPLCiiL[Nle]P[dD]W[HArg]Ciii] (H-A[hArg]DC[Hyp]LVNPLCL[Nle]P[dD]W[hArg]C-NH2; linker 4-11-18 via TATA; N-terminus and C-terminus assumed) showed a Ki of 0.894 nM.
`CC(=O)N[C@H]1CSCCC(=O)N2CN3CN(C2)C(=O)CCSC[C@H](NC(=O)[C@H](CC(C)C)NC(=O)[C@@H]2CCCN2C(=O)[C@H](CC(N)=O)NC(=O)[C@H](C(C)C)NC(=O)[C@H](CC(C)C)NC(=O)[C@@H]2C[C@@H](O)CN2C1=O)C(=O)N[C@@H](CC(C)C)C(=O)N[C@@H](Cc1c[nH]cn1)C(=O)N1CCC[C@H]1C(=O)N[C@H](CC(=O)O)C(=O)N[C@@H](Cc1c[nH]c2ccccc12)C(=O)N[C@@H](CCCCNC(=N)N)C(=O)N[C@H](C(=O)N[C@@H](CC(C)C)C(=O)N[C@H](Cc1c[nH]cn1)C(=O)NCC(=O)N[C@H](CCCCN)C(N)=O)CSCCC3=O` [BCY13125, [Ac]Ci[HyP]LVNPLCiiLHP[dD]W[HArg]CiiiL[dH]G[dK]] (Ac-C[Hyp]LVNPLCLHP[dD]W[hArg]CL[dH]G[dK]-NH2; linker 1-8-15 via TATA; C-terminus assumed) gave a Ki of 1.83 nM.
`CC(C)C[C@@H]1NC(=O)[C@@H]2CSCCC(=O)N3CN(CN(C3)C(=O)CCSC[C@H](NC(=O)[C@H](CC(=O)O)NC(=O)[C@H](CCCCNC(=N)N)NC(=O)[C@H](C)N)C(=O)N3C[C@H](O)C[C@H]3C(=O)N[C@@H](CC(C)C)C(=O)N[C@@H](C(C)C)C(=O)N[C@@H](CC(N)=O)C(=O)N3CCC[C@H]3C(=O)N[C@@H](CC(C)C)C(=O)N2)C(=O)CCSC[C@@H](C(N)=O)NC(=O)[C@H](CCCCNC(=N)N)NC(=O)[C@H](Cc2c[nH]c3ccccc23)NC(=O)[C@@H](CC(=O)O)NC(=O)[C@@H]2CCCN2C(=O)[C@H](Cc2cccs2)NC1=O` [BCY13922, A[HArg]DCi[HyP]LVNPLCiiL[Thi]P[dD]W[HArg]Ciii] (H-A[hArg]DC[Hyp]LVNPLCL[2Thi]P[dD]W[hArg]C-NH2; linker 4-11-18 via TATA; N-terminus and C-terminus assumed) gave a Ki of 1.14 nM.
Work on `CC(C)C[C@@H]1NC(=O)[C@@H]2CSCCC(=O)N3CN(CN(C3)C(=O)CCSC[C@H](NC(=O)[C@H](CC(=O)O)NC(=O)[C@H](CCCCNC(=N)N)NC(=O)[C@H](C)N)C(=O)N3C[C@H](O)C[C@H]3C(=O)N[C@@H](CC(C)C)C(=O)N[C@@H](C(C)C)C(=O)N[C@@H](CC(N)=O)C(=O)N3CCC[C@H]3C(=O)N[C@@H](CC(C)C)C(=O)N2)C(=O)CCSC[C@@H](C(N)=O)NC(=O)[C@H](CCCCNC(=N)N)NC(=O)[C@H](Cc2c[nH]c3ccccc23)NC(=O)[C@@H](CC(=O)O)NC(=O)[C@@H]2CCCN2C(=O)[C@H](Cc2cccc3ccccc23)NC1=O` [BCY13117, A-[HArg]-D-Ci[HyP]LVNPLCiiL[1Nal]P[dD]W[HArg]Ciii] (H-A[hArg]DC[Hyp]LVNPLCL[1Nal]P[dD]W[hArg]C-NH2; linker 4-11-18 via TATA; N-terminus and C-terminus assumed) yielded a Ki of 1.12 nM.
Work on `CC(C)C[C@@H]1NC(=O)[C@@H]2CSCCC(=O)N3CN(CN(C3)C(=O)CCSC[C@H](NC(=O)[C@H](CC(=O)O)NC(=O)[C@H](CCCCNC(=N)N)NC(=O)[C@H](C)N)C(=O)N3C[C@H](O)C[C@H]3C(=O)N[C@@H](CC(C)C)C(=O)N[C@@H](C(C)C)C(=O)N[C@@H](CC(N)=O)C(=O)N3CCC[C@H]3C(=O)N[C@@H](CC(C)C)C(=O)N2)C(=O)CCSC[C@@H](C(N)=O)NC(=O)[C@H](CCCCNC(=N)N)NC(=O)[C@H](Cc2c[nH]c3ccccc23)NC(=O)[C@@H](CC(=O)O)NC(=O)[C@@H]2CCCN2C(=O)[C@H](CCC(=O)O)NC1=O` [BCY12854, A-[HArg]-D-Ci[HyP]LVNPLCiiLEP[dD]W[HArg]Ciii] (H-A[hArg]DC[Hyp]LVNPLCLEP[dD]W[hArg]C-NH2; linker 4-11-18 via TATA; N-terminus and C-terminus assumed) yielded a Ki of 9.34 nM.
